Key:
[1] = tested on: A549 cells; assay: Proliferation Assay (A549 viability, Cell Titer Fluor, 72 hours); format: cell-based; conditions: Homo sapiens, A549, 72 h
Procedure, shortened: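 A549 cells seeded at 1000 cells/well, rested 24 h, then exposed to compound in 0.5% DMSO for 72 h at 37 °C. Viability read by Cell Titer Fluor fluorescence; IC50 from four-parameter logistic fit.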

[2] = molecular target: purified recombinant human GAC (GLS1) (Homo sapiens (Human), UniProt O94925); assay: GLS1 Enzymatic Activity Assay (dual-coupled enzymatic assay, resorufin/Amplex UltraRed readout); format: biochemical;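 note: glutamate from GAC coupled via glutamate oxidase and peroxidase to resorufin, read as fluorescence (ex 530, em 590 nm) kinetically or at 20 min, four-parameter logistic IC50 fit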
Chain of purified recombinant human GAC (GLS1) (O94925 other isoform, or with tags, fused parts or gaps): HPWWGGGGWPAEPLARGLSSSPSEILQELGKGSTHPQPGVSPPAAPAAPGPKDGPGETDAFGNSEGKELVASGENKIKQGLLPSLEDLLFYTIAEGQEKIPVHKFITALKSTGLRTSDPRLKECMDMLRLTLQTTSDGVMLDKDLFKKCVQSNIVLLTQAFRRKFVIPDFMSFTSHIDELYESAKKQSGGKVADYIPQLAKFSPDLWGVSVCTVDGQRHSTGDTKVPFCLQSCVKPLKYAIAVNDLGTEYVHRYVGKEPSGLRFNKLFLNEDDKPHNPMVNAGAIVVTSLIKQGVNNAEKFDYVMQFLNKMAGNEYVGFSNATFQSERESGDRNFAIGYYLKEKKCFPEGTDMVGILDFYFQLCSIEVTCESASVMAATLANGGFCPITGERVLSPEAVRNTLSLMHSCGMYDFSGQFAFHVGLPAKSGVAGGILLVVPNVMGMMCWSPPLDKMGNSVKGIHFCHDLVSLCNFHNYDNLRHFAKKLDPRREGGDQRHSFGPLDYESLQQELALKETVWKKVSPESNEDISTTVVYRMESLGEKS

| SMILES | EC50 [1] [nM] | IC50 [2] [nM] |
| --- | --- | --- |
| O=C(NCc1cc(C(F)(F)F)ccn1)c1cn(CC(F)CCc2nnc(C(=O)NCC(F)(F)F)s2)nn1 (centres unmarked) [Example 499, 5-{3-fluoro-4-[4-({[4-(trifluoromethyl)pyridin-2-yl]methyl}carbamoyl)-1H-1,2,3-triazol-1-yl]butyl}-N-(2,2,2-trifluoroethyl)-1,3,4-thiadiazole-2-carboxamide] | 100 to 500 | 100 to 500 |
| O=C(NCc1cncc(C(F)(F)F)c1)c1cn(CC(F)CCc2nnc(C(=O)NCC(F)(F)F)s2)nn1 (centres unmarked) [Example 500, 5-{3-fluoro-4-[4-({[5-(trifluoromethyl)pyridin-3-yl]methyl}carbamoyl)-1H-1,2,3-triazol-1-yl]butyl}-N-(2,2,2-trifluoroethyl)-1,3,4-thiadiazole-2-carboxamide] | 100 to 500 | 100 to 500 |
| CNC(=O)c1cn(CC(F)CCc2nnc(C(=O)NCc3cncc(C(F)(F)F)c3)s2)nn1 (centres unmarked) [Example 501, 5-{3-fluoro-4-[4-(methylcarbamoyl)-1H-1,2,3-triazol-1-yl]butyl}-N-{[- (trifluoromethyl)pyridin-3-yl]methyl}-1,3,4-thiadiazole-2-carboxamide] | 100 to 500 | 100 to 500 |
| O=C(NCCC(F)(F)F)c1cn(CC(F)CCc2nnc(C(=O)NCc3cncc(C(F)(F)F)c3)s2)nn1 (centres unmarked) [Example 502, 5-(3-fluoro-4-{4-[(3,3,3-trifluoropropyl)carbamoyl]-1H-1,2,3-triazol-1-yl}butyl)-N-{[5-(trifluoromethyl)pyridin-3-yl]methyl}-1,3,4-thiadiazole-2-carboxamide] | 100 to 500 | 100 to 500 |
| CNC(=O)c1nnc(CCC(F)Cn2cc(C(=O)NCc3cc(C(F)(F)F)ccn3)nn2)s1 (centres unmarked) [Example 503, 5-{3-fluoro-4-[4-({[4-(trifluoromethyl)pyridin-2-yl]methyl}carbamoyl)-1H-1,2,3-triazol-1-yl]butyl}-N-methyl-1,3,4-thiadiazole-2-carboxamide] | 500 to 5000 | 100 to 500 |
| O=C(NCC(F)(F)F)c1cn(CC(F)CCc2nnc(C(=O)NCc3cncc(C(F)(F)F)c3)s2)nn1 (centres unmarked) [Example 506, 5-(3-fluoro-4-{4-[(2,2,2-trifluoroethyl)carbamoyl]-1H-1,2,3-triazol-1-yl}butyl)-N-{[5-(trifluoromethyl)pyridin-3-yl]methyl}-1,3,4-thiadiazole-2-carboxamide] | 100 to 500 | 100 to 500 |
| CNC(=O)c1nnc(CCC(F)Cn2cc(C(=O)NCc3cncc(C(F)(F)F)c3)nn2)s1 (centres unmarked) [Example 507, 5-{3-fluoro-4-[4-({[5-(trifluoromethyl)pyridin-3-yl]methyl}carbamoyl)-1H-1,2,3-triazol-1-yl]butyl}-N-methyl-1,3,4-thiadiazole-2-carboxamide] | 100 to 500 | 100 to 500 |
| O=C(NCC(F)(F)F)c1cn(CC(F)CCc2nnc(C(=O)NCc3cc(C(F)(F)F)ccn3)s2)nn1 (centres unmarked) [Example 509, 5-(3-fluoro-4-{4-[(2,2,2-trifluoroethyl)carbamoyl]-1H-1,2,3-triazol-1-yl}butyl)-N-{[4-(trifluoromethyl)pyridin-2-yl]methyl}-1,3,4-thiadiazole-2-carboxamide] | 100 to 500 | 100 to 500 |
| O=C(NCCC(F)(F)F)c1cn(CC(F)CCc2nnc(C(=O)NCc3cc(C(F)(F)F)ccn3)s2)nn1 (centres unmarked) [Example 510, 5-(3-fluoro-4-{4-[(3,3,3-trifluoropropyl)carbamoyl]-1H-1,2,3-triazol-1-yl}butyl)-N-{[4-(trifluoromethyl)pyridin-2-yl]methyl}-1,3,4-thiadiazole-2-carboxamide] | 500 to 5000 | 100 to 500 |
| O=C(NCc1cc(C(F)(F)F)ccn1)c1cn(CC(F)CCc2nnc(C(=O)NCCC(F)(F)F)s2)nn1 (centres unmarked) [Example 511, 5-{3-fluoro-4-[4-({[4-(trifluoromethyl)pyridin-2-yl]methyl}carbamoyl)-1H-1,2,3-triazol-1-yl]butyl}-N-(3,3,3-trifluoropropyl)-1,3,4-thiadiazole-2-carboxamide] | 500 to 5000 | 100 to 500 |
| O=C(NCc1cncc(C(F)(F)F)c1)c1cn(CC(F)CCc2nnc(C(=O)NCCC(F)(F)F)s2)nn1 (centres unmarked) [Example 512, 5-{3-fluoro-4-[4-({[5-(trifluoromethyl)pyridin-3-yl]methyl}carbamoyl)-1H-1,2,3-triazol-1-yl]butyl}-N-(3,3,3-trifluoropropyl)-1,3,4-thiadiazole-2-carboxamide] | 100 to 500 | 100 to 500 |

Now from value to compound:

| EC50 [1] [nM] | IC50 [2] [nM] | SMILES |
| --- | --- | --- |
| < 100 | < 100 | O=C(Cc1cccc(OC(F)(F)F)c1)Nc1nnc(CCC(F)Cn2cc(C(=O)NCc3ccc(C(F)(F)F)cn3)nn2)s1 (centres unmarked) [Example 493, 1-[2-fluoro-4-(5-{2-[3-(trifluoromethoxy)phenyl]acetamido}-1,3,4-thiadiazol-2-yl)butyl]-N-{[5-(trifluoromethyl)pyridin-2-yl]methyl}-1H-1,2,3-triazole-4-carboxamide] |
| < 100 | < 100 | O=C(Cc1cccc(OC(F)(F)F)c1)Nc1nnc(CCC(F)Cn2cc(C(=O)NCc3cccc(C(F)(F)F)n3)nn2)s1 (centres unmarked) [Example 494, 1-[2-fluoro-4-(5-{2-[3-(trifluoromethoxy)phenyl]acetamido}-1,3,4-thiadiazol-2-yl)butyl]-N-{[6-(trifluoromethyl)pyridin-2-yl]methyl}-1H-1,2,3-triazole-4-carboxamide] |
| < 100 | < 100 | O=C(Cc1cccc(OC(F)(F)F)c1)Nc1nnc(CCC(F)Cn2cc(C(=O)NCc3cc(C(F)(F)F)ccn3)nn2)s1 (centres unmarked) [Example 495, 1-[2-fluoro-4-(5-{2-[3-(trifluoromethoxy)phenyl]acetamido}-1,3,4-thiadiazol-2-yl)butyl]-N-{[4-(trifluoromethyl)pyridin-2-yl]methyl}-1H-1,2,3-triazole-4-carboxamide] |
| < 100 | < 100 | O=C(Cc1cccc(OC(F)(F)F)c1)Nc1nnc(CCC(F)Cn2cc(C(=O)NCc3cncc(C(F)(F)F)c3)nn2)s1 (centres unmarked) [Example 496, 1-[2-fluoro-4-(5-{2-[3-(trifluoromethoxy)phenyl]acetamido}-1,3,4-thiadiazol-2-yl)butyl]-N-{[5-(trifluoromethyl)pyridin-3-yl]methyl}-1H-1,2,3-triazole-4-carboxamide] |
| 100 to 500 | < 100 | CNC(=O)c1cn(CC(F)CCc2nnc(NC(=O)Cc3cccc(OC(F)(F)F)c3)s2)nn1 (centres unmarked) [Example 497, 1-(2-fluoro-4-(5-(2-(3-(trifluoromethoxy)phenyl)acetamido)-1,3,4-thiadiazol-2-yl)butyl)-N-methyl-1H-1,2,3-triazole-4-carboxamide] |
| < 100 | < 100 | O=C(Cc1cccc(OC(F)(F)F)c1)Nc1nnc(CCC(F)Cn2cc(C(=O)NCc3ccc(C(F)(F)F)nc3)nn2)s1 (centres unmarked) [Example 498, 1-[2-fluoro-4-(5-{2-[3-(trifluoromethoxy)phenyl]acetamido}-1,3,4-thiadiazol-2-yl)butyl]-N-{[6-(trifluoromethyl)pyridin-3-yl]methyl}-1H-1,2,3-triazole-4-carboxamide] |
| 100 to 500 | < 100 | CNC(=O)c1nnc(CCC(F)Cn2cc(C(=O)NCc3cccc(OC(F)(F)F)c3)nn2)s1 (centres unmarked) [Example 504, 5-{3-fluoro-4-[4-({[3-(trifluoromethoxy)phenyl]methyl}carbamoyl)-1H-1,2,3-triazol-1-yl]butyl}-N-methyl-1,3,4-thiadiazole-2-carboxamide] |
| 100 to 500 | < 100 | N#CCNC(=O)c1cn(CC(F)CCc2nnc(NC(=O)Cc3cccc(OC(F)(F)F)c3)s2)nn1 (centres unmarked) [Example 505, N-(cyanomethyl)-1-[2-fluoro-4-(5-{2-[3-(trifluoromethoxy)phenyl]acetamido}-1,3,4-thiadiazol-2-yl)butyl]-1H-1,2,3-triazole-4-carboxamide] |
| < 100 | < 100 | O=C(Cc1ccccn1)Nc1nnc(CCC(F)Cn2cc(C(=O)NCc3cccc(OC(F)(F)F)c3)nn2)s1 (centres unmarked) [Example 513, 1-(2-fluoro-4-{5-[2-(pyridin-2-yl)acetamido]-1,3,4-thiadiazol-2-yl}butyl)-N-{[3-(trifluoromethoxy)phenyl]methyl}-1H-1,2,3-triazole-4-carboxamide] |
| < 100 | < 100 | O=C(Cc1ccccn1)Nc1nnc(CCC(F)Cn2cc(C(=O)NCc3cc(OC(F)(F)F)ccc3F)nn2)s1 (centres unmarked) [Example 514, 1-(2-fluoro-4-{5-[2-(pyridin-2-yl)acetamido]-1,3,4-thiadiazol-2-yl}butyl)-N-{[2-fluoro-5-(trifluoromethoxy)phenyl]methyl}-1H-1,2,3-triazole-4-carboxamide] |
| 100 to 500 | < 100 | N#CCNC(=O)c1nnc(CCC(F)Cn2cc(C(=O)NCc3cccc(OC(F)(F)F)c3)nn2)s1 (centres unmarked) [Example 515, N-(cyanomethyl)-5-{3-fluoro-4-[4-({[3-(trifluoromethoxy)phenyl]methyl}carbamoyl)-1H-1,2,3-triazol-1-yl]butyl}-1,3,4-thiadiazole-2-carboxamide] |
| < 100 | < 100 | O=C(Cc1cc(OC(F)(F)F)ccc1F)Nc1nnc(CCC(F)Cn2cc(C(=O)NCc3ccc(C(F)(F)F)cn3)nn2)s1 (centres unmarked) [Example 516, 1-[2-fluoro-4-(5-{2-[2-fluoro-5-(trifluoromethoxy)phenyl]acetamido}-1,3,4-thiadiazol-2-yl)butyl]-N-{[5-(trifluoromethyl)pyridin-2-yl]methyl}-1H-1,2,3-triazole-4-carboxamide] |
| < 100 | < 100 | O=C(Cc1cc(OC(F)(F)F)ccc1F)Nc1nnc(CCC(F)Cn2cc(C(=O)NCc3cc(C(F)(F)F)ccn3)nn2)s1 (centres unmarked) [Example 517, 1-[2-fluoro-4-(5-{2-[2-fluoro-5-(trifluoromethoxy)phenyl]acetamido}-1,3,4-thiadiazol-2-yl)butyl]-N-{[4-(trifluoromethyl)pyridin-2-yl]methyl}-1H-1,2,3-triazole-4-carboxamide] |
| < 100 | < 100 | CNC(=O)c1cn(CC(F)CCc2nnc(NC(=O)Cc3cc(OC(F)(F)F)ccc3F)s2)nn1 (centres unmarked) [Example 518, 1-[2-fluoro-4-(5-{2-[2-fluoro-5-(trifluoromethoxy)phenyl]acetamido}-1,3,4-thiadiazol-2-yl)butyl]-N-methyl-1H-1,2,3-triazole-4-carboxamide] |
